Type in all cases: cell-based
In test [1] the test system is Trypanosoma brucei rhodesiense (STIB 900 strain). Kind of test: African trypanosome protozoa growth inhibition screening test. As to the method: In the present experiment, protozoa of Tripanosoma brucei rhodensiense (STIB 900 Strain), a trypomastigote living in blood stream, was used. The medium used in the experiment was a MEM medium which was sterilized with a filter and supplemented with 25 mM N-2-hydroxyeihylpiperazine-2-ethansulfonic acid (HEPES), 1 g/L glucose, 1% MEM non-essential amino acid, 0.2 mM 2-mercaptoethanol, 2 mM sodium pyruvate, 0.1 mM hypoxanthine, and 15% heat-treated horse serum. The protozoa was cultured in an atmosphere of CO2 concentration 5%, at a temperature of 37° C.
The compounds of the present invention to be used in the present test and the positive control drug (melarsoprol) were dissolved in dimethylsulfoxide (DMSO) to make a test solution of a predetermined concentration.
A medium containing 8×10^3 protozoa, and a test solution containing a drug of a predetermined concentration of a drug-free DMSO were added to wells of a 96-well culture plate, and subsequently, medium was added so that the amount in each well becomes 100 μL. Test solutions were taken by duplicates.
After culturing the culture plate for 72 hours in an incubator, growth inhibition activity was tested. Test was conducted as follows. 10 μL of Alamar Blue aqueous solution was added to each well, and the resultant was further cultured for 2 hours. Next, the culture plate was placed on a fluorescent micro-plate reader (Spectramax Gemeni XS; US Molecular Device), radiated at an excited wavelength of 536 nm. Fluorescent intensity was measured at 588 nm, to calculate the trypanosome protozoa infected rate of the test solution added-group, and of the control group.
(§1) Growth inhibition rate (%)={1−(b−a)/(c−a)}×100 • a: early infection rate • b: infection rate when test solution was added • c: infection rate of the control

In test [2] the test system is Trypanosoma cruzi (Tulahuen C2C4 strain). The test is described as follows: American trypanosome protozoa growth inhibition screening test. On the procedure: In the present experiment, amastigote and trypomastigote infected with rat L6 cells of protozoa of Trypanosoma cruzi (Tulahuen C2C4 starin) were used. As medium used in the test, RPMI 1640 medium containing L6 cells was supplemented so that L-glutamine (200 mM) become 1%, fetal bovine serum becomes 10%, which was cultured under CO2 concentration 5%, at 37° C.
The compounds of the present invention to be used in the present test and the positive control drug (benznidazole) were dissolved in DMSO to make a test solution of a predetermined concentration.
A medium containing 5×10^3 protozoa was added to wells of a 96-well culture plate, and pre-cultured for 48 hours. After replacing the medium, test solution containing drug of a predetermined concentration or a drug-free DMSO was added. Test solutions were taken by duplicates.
After culturing the culture plate in an incubator for 96 hours, growth inhibition activity was tested. Test was conducted as follows. 50 μL of CPRG/Nonidet was added to each well, and allowed to rest for 2 to 6 hours. Next, the culture plate was placed on a fluorescent micro-plate reader. The absorbance was measured at 540 nm, and the trypanosome infection rate of the test solution added group and control group were calculated.
as §1

Another test concerns Plasmodium falciparum K1. Kind of test: Chloroquine resistant-Plasmodium falciparum growth inhibition screening test. As to conditions: for Selective toxicity: EC50 against rat L6 cells / EC50 against P. falciparum K1; for EC50: Plasmodium falciparum, Table 2, unit inferred, chloroquine-resistant K1 strain, read-out: P. falciparum K1. As to the method: In the present experiment, protozoa of plasmodium falsiparum K1 strain was used. RPMI-1640 medium sterilized with a filter to which human serum was added to be 5%, was used in the experiment. Malarial parasites were cultured under 3% O2 concentration, 4% CO2 concentration, 93% N2 concentration, and at a temperature of 37° C.
The compounds of the present invention to be used in the present test and the positive control drug (chloroquine) were dissolved in DMSO to make a test solution of a predetermined concentration. Cultured malaria parasite infected-erythrocytes were collected by centrifugation, and diluted with non-infected erythrocyte so that the early infection rate was 0.15%. Hematocrit level at that time was 2.5%.
200 μL of malaria infected solution was added to wells of a 96-well culture plate, and adjusted by adding a test solution containing drug of a predetermined concentration or a drug-free DMSO. Test solutions were taken by duplicates.
[…] […] Radiation intensity was measured with a beta plate liquid scintillation counter (Wallac), and malarial parasite infection rates of the test solution added group and the control group were calculated.
Growth inhibition rate (%)={1−(b−a)/(c−a)}×100 • a: early infection rate • b: infection rate when test solution was added • c: infection rate of the control 3. Growth Inhibition Test of Rat L6 Cells
Antimalarial activity of a sample was estimated from EC50 values of the sample against chloroquine resistant-Plasmodium falciparum and rat L6 cells. […] It means that the larger the value of the selection toxity, the less the risk of the side effect is. Chemotherapy index=(EC50 value of a sample against rat L6 cells)/(EC50 value of a sample against chloroquine resistant-Plasmodium falsiparum)

Where [3] appears, read: Table 6, unit inferred, read-out: Trypanosoma brucei rhod.
The mark [4] stands for this setting: Table 6, unit inferred, read-out: Trypanosoma cruzi.

Converted amounts (≈) assume the structure as drawn. Where two headings read alike, the source gives them in different places.

With `CCN(CC)c1ccc2nc3c4ccccc4c(=Nc4ccc5ccccc5n4)cc-3oc2c1` [Compound 1H, N,N-Diethyl-5-(quinolin-2-ylimino)-5H-benzo[a]phenoxazin-9-amine], the EC50 in test [1] (Table 5, 72 hours, Alamar Blue, read-out: 50% Growth inhibition concentration Trypanosoma brucei rhod.) is 4.6 µg/mL (≈ 10.3 µM); in test [2] (Trypanosoma cruzi, Table 5, in rat L6 cells, 96 hours, CPRG/Nonidet, read-out: 50% Growth inhibition concentration Trypanosoma cruzi), 3.31 µg/mL (≈ 7.45 µM). Moreover, the Selective toxicity in the test with Plasmodium falciparum K1 is listed as 2513.

`CCN(CCNS(C)(=O)=O)c1cc(C)c2nc3c4ccccc4c(=Nc4ccncc4)cc-3oc2c1` [Compound 1R, N-Ethyl-N-(2-methansulfonamidylethyl)-11-methyl-5-(pyridine-4-ylimino)-5H-benzo[a]phenoxazin-9-amine]: the EC50 in test [1] (setting [3]) is 5.34 µg/mL (≈ 10.7 µM); in test [2] (setting [4]), 2.01 µg/mL (≈ 4.01 µM); with Plasmodium falciparum K1 it was 9 ng/mL (≈ 0.0179 µM). Also, in the test with Plasmodium falciparum K1, the Selective toxicity is recorded as 885.

On to `CCN(CCNS(C)(=O)=O)c1cc(C)c2nc3c4ccccc4c(=Nc4ccccn4)cc-3oc2c1` [Compound 1S, N-Ethyl-N-(2-methansulfonamidylethyl)-11-methyl-5-(pyridine-2-ylimino)-5H-benzo[a]phenoxazin-9-amine], for which the EC50 in test [1] (setting [3]) came to 0.714 µg/mL (≈ 1.42 µM); in test [2] (setting [4]), 0.376 µg/mL (≈ 0.75 µM); in the test on Plasmodium falciparum K1, 7 ng/mL (≈ 0.014 µM). Moreover, in the test on Plasmodium falciparum K1, the Selective toxicity is reported as 43.
